Measurements published in patent US20200045954A1, “NOVEL COMPOSITION FOR ORGAN PRESERVATION” (priority 2018, published 2020).
Non-standard residues stand in square brackets, D forms with d. No end group written: not given here.

Tests used:
[1] = system: isolated perfused rat hearts; test: Cardiac function of isolated perfused rat hearts (modified Langendorff) subjected to global I(30 min)/R(45 min); details: for blocking of the cardio-protective effects of tri-peptide: opioid antagonist 5 μM given with tri-peptide 50 μM
[2] = Ventilator induced diaphragmatic dysfunction
[3] = system: isolated perfused rat hearts; test: Infarct size by TTC staining of isolated perfused rat hearts after I(30 min)/R(45 min)
[4] = compared to untreated control I/R hearts, tri-peptide 50 μM
[5] = final value, 45 min reperfusion
[6] = initial (baseline) value, mean ± S.E.M.

Molecule	blocking of the cardio-protective effects of tri-peptide [1]	ventilator induced diaphragmatic dysfunction [2]	infarct size ([3]; TTC staining after I(30 min)/R(45 min))	infarct size [3, 4]	post-reperfused cardiac function [1, 4]	Final +dP/dtmax [1, 5]	Final Coronary How [1, 5]	Final Heart Rate [1, 5]	Final LVEDP [1, 5]	Final LVESP [1, 5]	Final −dP/dtmin [1, 5]	Final LVDP ([1]; final value, 45 min reperfusion, LVDP=LVESP−LVEDP)	Initial +dP/dtmax ([1]; initial (baseline) value)	Initial Coronary Flow ([1]; initial (baseline) value)	Initial Heart Rate ([1]; initial (baseline) value)	Initial LVDP ([1]; initial (baseline) value, LVDP=LVESP−LVEDP)	Initial LVEDP [1, 6]	Initial LVESP [1, 6]
Oc1ccc2c3c1O[C@H]1c4[nH]c5ccccc5c4C[C@@]4(O)[C@@H](C2)N(CC2CC2)CC[C@]314 [NALD, naltrindole, reference compound]	not	–	–	–	–	–	–	–	–	–	–	–	–	–	–	–	–	–
Oc1ccc2c3c1O[C@H]1c4[nH]c5c(c4C[C@@]4(O)[C@@H](C2)N(CC2CC2)CC[C@]314)C[C@@]1(O)[C@H]2Cc3ccc(O)c4c3[C@@]1(CCN2CC1CC1)[C@H]5O4 [BNI, nor-Binaltorphimine, reference compound]	blocked	–	–	–	–	–	–	–	–	–	–	–	–	–	–	–	–	–
Phe-[dR]-Phe-NH2 [tri-peptide]	–	attenuate	26 ± 1%	reduced infarct size	significantly restored	1126.8 ± 177.2 mmHg/s	9.6 ± 1.5 mL/min	276.3 ± 12.6 BPM	50.1 ± 7.4 mmHg	105.6 ± 6.1 mmHg	965.5 ± 112.1 mmHg/s	55.5 ± 6.0 mmHg	2376.7 ± 75.1 mmHg/s	17.7 ± 0.9 mL/min	287.8 ± 8.1 BPM	94.2 ± 2.7 mmHg	6.7 ± 0.8 mmHg	100.9 ± 3.1 mmHg
